The record followed here is patent US6949522B2, “β-2′- or 3′-halonucleosides” (Pharmasset, Inc., priority 2001, dated 2005).

As a reminder, the EC90 is the concentration needed for an effect of 90%. What is called IC50 is the concentration that inhibits the measured activity by half. A higher IC50 goes with weaker potency in that assay. The EC50 is the concentration at which the effect is half-maximal.

Molecules are shown by their SMILES. Like-named read-outs stand apart in the source and are kept apart here.

The subject of one data set is HIV-1xxBRU. The data set is described as follows: Antiviral activity in human PBM cells, HIV-1xxBRU. The format is cell-based. Conditions: read-out: xxBRU (EC90). An excerpt:
(§1) Human peripheral blood mononuclear (PBM) cells (obtained from Atlanta Red Cross) were isolated by Ficoll-Hypaque discontinuous gradient centrifugation from healthy seronegative donors. Cells were stimulated with phytohemagglutinin A (Difco, Sparks, Md.) for 2-3 days prior to use. HIV-1LAI obtained from the Centers for Disease Control and Prevention (Atlanta, Ga.) was used as the standard reference virus for the antiviral assays. The molecular infetious clones HIV-1xxBru and HIV-1M184Vpin were obtained from Dr. John Mellors (University of Pittsburgh). Infections were done in bulk for one hour, either with 100 TCID50/1×10^7 cells for a flask (T25) assay or with 200 TCID50/6×10^5 cells/well for a 24 well plate assay. Cells were added to a plate or flask containing a ten-fold serial dilution of the test compound. Assay medium was RPMI-1640 supplemented with heat inactivated 16% fetal bovine serum, 1.6 mM L-glutamine, 80 IU/ml penicillin, 80 μg/ml streptomycin, 0.0008% DEAE-Dextran, 0.045% sodium bicarbonate, and 26 IU/ml recombinant interleukin-2 (Chiron Corp, Emeryville, Calif.). […] Untreated and uninfected PBM cells were grown in parallel at equivalent cell concentrations as controls. The cell cultures were maintained in a humidified 5% CO2-air at 37° C. for 5 days and supernatants were collected for reverse transcriptase (RT) activity.
Supernatants were centrifuged at 12,000 rpm for 2 hours to pellet the virus. The pellet was solubilized with vortexing in 100 μl virus solubilization buffer (VSB) containing 0.5% Triton X-100, 0.8 M NaCl, 0.5 mM phenylmethylsulfonyl fluoride, 20% glycerol, and 0.05 M Tris, pH 7.8. Ten μL of each sample were added to 75 μL RT reaction mixture (0.06 M Tris, pH 7.8, 0.012 M MgCl2, 0.006 M dithiothreitol, 0.006 mg/ml poly (rA)n, oligo (dT)12-18, 96 μg/ml dATP, and 1 μM of 0.08 mCi/ml ^3H-thymidine triphosphate (Moravek Biochemicals, Brea, Calif.) and incubated at 37° C. for 2 hours. The reaction was stopped by the addition of 100 μL 10% trichloroacetic acid containing 0.05% sodium pyrophosphate. The acid insoluble product was harvested onto filter paper using a Packard Harvester (Meriden, Conn.), and the RT activity was read on a Packard Direct Beta Counter (Meriden, Conn.). The RT results were expressed in counts per minute (CPM) per milliliter. […]

For the next data set, the system named is HIV-1M184V. The data set is described as follows: Antiviral activity against lamivudine-resistant (HIV-1M184V) mutant strain in human PBM cells. The following applies: for EC90: read-out: M184V (EC90). The format is cell-based.
Text: as §1
(§2) Supernatants were centrifuged at 12,000 rpm for 2 hours to pellet the virus. The pellet was solubilized with vortexing in 100 μl virus solubilization buffer (VSB) containing 0.5% Triton X-100, 0.8 M NaCl, 0.5 mM phenylmethylsulfonyl fluoride, 20% glycerol, and 0.05 M Tris, pH 7.8. Ten μL of each sample were added to 75 μL RT reaction mixture (0.06 M Tris, pH 7.8, 0.012 M MgCl2, 0.006 M dithiothreitol, 0.006 mg/ml poly (rA)n, oligo (dT)12-18, 96 μg/ml dATP, and 1 μM of 0.08 mCi/ml ^3H-thymidine triphosphate (Moravek Biochemicals, Brea, Calif.) and incubated at 37° C. for 2 hours. The reaction was stopped by the addition of 100 μL 10% trichloroacetic acid containing 0.05% sodium pyrophosphate. The acid insoluble product was harvested onto filter paper using a Packard Harvester (Meriden, Conn.), and the RT activity was read on a Packard Direct Beta Counter (Meriden, Conn.). The RT results were expressed in counts per minute (CPM) per milliliter.
A single mutation at residue 184 (M184V) in the catalytic domain of HIV-1 RT bring about a high-level of resistance to 3TC, causing the 50% inhibitory concentration of 3TC to be increased at least 1,000-fold (Schinazi, R. F.; Lloyd, Jr. R. M.; Nguyen, M. -H.; Cannon, D. L.; McMillan, A.; Ilksoy, N.; Chu, C. K.; Liotta, D. C.; Bazni, H. Z.; Mellors, J. W. Characterizatin of human immunodeficiency viruses resistant to oxthiolane-cytosine nucleosides. Antimicrob Agents Chemother. 1993, 37, 875-881; Tisdale, M.; Kemp, S. D.; Parry, N. R.; Larder, B. A. Rapid in vitro selection of human immunodeficiency virus type 1 resistant to 3′-thiacytidine inhibitors due to a mutation in the YMDD region of reverse transcnptase. Proc. Natl. Acad. Sci. USA 1993, 90, 5653-5656), contributing to the failure of anti-AIDS combination therapy. […] K. Synthesis and anti-HIV and anti-HBV activities of 2′-fluoro-2′,3′-unsaturated L-nucleosides.

Another data set is described as follows: in vitro. Conditions: human. Here is the method: After a three day-incubation for HepG2, or 5 days for human PBM cells, cell viability and mitochondrial activity were measured in a colorimetric assay using the MTS- or MTT dye method (Promega, Madison, Wis.).
For a further data set, the system named is HIV-1LAI. The data set is described as follows: HIV assay in human PBM cells (RT activity of supernatant). The format is cell-based. The following applies: 5 days, read-out: Anti-HIV-1 Activity (EC50).
Text: Human peripheral blood mononuclear (PBM) cells (obtained from Atlanta Red Cross) were isolated by Ficoll-Hypaque discontinuous gradient centrifugation from healthy seronegative donors. Cells were stimulated with phytohemagglutinin A (Difco, Sparks, Md.) for 2-3 days prior to use. HIV-1LAI obtained from the Centers for Disease Control and Prevention (Atlanta, Ga.) was used as the standard reference virus for the antiviral assays. The molecular infetious clones HIV-1xxBru and HIV-1M184Vpin were obtained from Dr. John Mellors (University of Pittsburgh). Infections were done in bulk for one hour, either with 100 TCID50/1×10^7 cells for a flask (T25) assay or with 200 TCID50/6×10^5 cells/well for a 24 well plate assay. Cells were added to a plate or flask containing a ten-fold serial dilution of the test compound. Assay medium was RPMI-1640 supplemented with heat inactivated 16% fetal bovine serum, 1.6 mM L-glutamine, 80 IU/ml penicillin, 80 μg/ml streptomycin, 0.0008% DEAE-Dextran, 0.045% sodium bicarbonate, and 26 IU/ml recombinant interleukin-2 (Chiron Corp, Emeryville, Calif.). AZT was used as a positive control for the assay. Untreated and uninfected PBM cells were grown in parallel at equivalent cell concentrations as controls. The cell cultures were maintained in a humidified 5% CO2-air at 37° C. for 5 days and supernatants were collected for reverse transcriptase (RT) activity.
as §2

The subject of a further data set is human PBM cells. The data set is described as follows: in vitro. It counts as cell-based. As to the method:
The compounds were evaluated for their potential toxic effects on uninfected PHA-stimulated human PBM cells, in CEM (T-lymphoblastoid cell line obtained from American Type Culture Collection, Rockville, Md.) and Vero (African green monkey kidney) cells. PBM cells were obtained from whole blood of healthy seronegative donors (HIV-1 and hepatitis B virus) by single-step Ficoll-Hypaque discontinous gradient centrifugation. […] All of the cells were plated in 96-well cell culture plates containing ten-fold serial dilutions of the test drug. […] At the end of incubation, MTT tetrazolium dye solution (Cell titer 96®, Promega, Madison, Wis.) was added to each well and incubated overnight. The reaction was stopped with stop solubilization solution (Promega, Madison, Wis.). The plates were incubated for 5 hours to ensure that the formazan crystals were dissolved. The plates were read at a wavelength of 570 nm using an ELISA plate reader (Bio-tek instruments, Inc., Winooski, Vt., Model # EL 312e). […] Bookmark not defined.

[1] abbreviates: Human immunodeficiency virus 1, PBMC.

In the case of `Cc1cn([C@H]2C[C@H](N=[N+]=[N-])[C@@H](CO)O2)c(=O)[nH]c1=O` [AZT, 3′-azido-3′-deoxythymidine, reference compound], the figures for the EC90 with HIV-1xxBRU (setting [1]) and in the data set on HIV-1M184V (setting [1]) were 0.01 µM and 0.003 µM, respectively. This compound also returned an IC50 at 3 days in “in vitro” greater than 100 µM. In the data set with HIV-1LAI (Human immunodeficiency virus 1, PBMC, 120 h), the EC50 is 0.004 µM.
As for `Nc1ccn([C@@H]2CS[C@H](CO)O2)c(=O)n1` [Compound 3TC, (−)-β-2′,3′-dideoxy-3′-thiacytidine, reference compound], the EC90 in the data set with HIV-1xxBRU (setting [1]) was found to be 0.08 µM; in the data set on HIV-1M184V (setting [1]) it was 535 µM. In the data set with HIV-1M184V (human PBM cells), the “FI, fold increase (EC90 HIV-1M184V/EC90 HIV-1xxBRU)” value (from here on “FI, fold increase”) is 6,688. The compound also returned an IC50 at 3 days in “in vitro” greater than 100 µM.
`Nc1ccn([C@@H]2C=C(F)[C@H](CO)O2)c(=O)n1` [Compound 10, 1-(2,3-Dideoxy-3-fluoro-β-L-glycero-pent-2-eno-furanosyl)cytosine] showed an IC50 at 3 days in “in vitro” greater than 100 µM.
Consider `Nc1ccn([C@@H]2S[C@H](CO)C=C2F)c(=O)n1` [Compound D-17, (−)-1-[(1S,4R)-2,3-dideoxy-2,3-didehydro-2-fluoro4-thio-β-D-ribofuranosyl]-cytosine], for which the EC90 in the data set with HIV-1xxBRU (human PBM cells) stood at 5 µM. The compound further yielded an IC50 with human PBM cells greater than 100 µM. Moreover, in the data set with HIV-1M184V (human PBM cells), the “FI, fold increase” value is 25 and the EC90 was roughly 125 µM. Moreover, in the data set on HIV-1LAI, the EC50 came to 1.3 µM.
Regarding `Nc1nc(=O)n([C@@H]2S[C@H](CO)C=C2F)cc1F` [Compound D-18, (−)-1-[(1S,4R)-2,3-dideoxy-2,3-didehydro-2-fluoro-4-thio-β-D-ribofuranosyl]-5-fluorocytosine], the concentration for half-maximal inhibition (IC50) in the data set with human PBM cells is greater than 100 µM. For the same compound, in the data set on HIV-1LAI, the EC50 was 11.6 µM.
Regarding `Nc1ccn([C@H]2S[C@@H](CO)C=C2F)c(=O)n1` [Compound L-17, (+)-1-[(1S,4R)-2,3-dideoxy-2,3-didehydro-2-fluoro-4-thio-β-L-ribofuranosyl]-cytosine], in the data set on HIV-1xxBRU (human PBM cells), the EC90 is 1.4 µM. In the data set on human PBM cells, this compound had an IC50 greater than 100 µM. In the data set with HIV-1M184V (human PBM cells), the “FI, fold increase” value is recorded as greater than 100 and the EC90 is greater than 100 µM.
For `Nc1nc(=O)n([C@H]2S[C@@H](CO)C=C2F)cc1F` [Compound L-18, (+)-1-[(1S,4R)-2,3-dideoxy-2,3-didehydro-2-fluoro-4-thio-β-L-ribofuranosyl]-5-fluoro-cytosine], the IC50 in the data set on human PBM cells is greater than 100 µM. Moreover, the EC50 in the data set with HIV-1LAI is 0.15 µM.
